Experimental data: patent publication US12139499B2, “Heteroaryl compounds for treating Huntington's disease” (PTC THERAPEUTICS, INC., priority 2018, dated 2024)

Tested on: Endogenous Huntingtin Protein
Experiment: Endogenous Huntingtin Protein Assay (ELISA-based MSD electrochemiluminescence)
Assay type: cell-based
Conditions: Table 1
Method in brief: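 Sandwich MSD electrochemiluminescence immunoassay. Capture used MW1 (expanded polyglutamine) or MAB2166 antibody coated at 1 μg/mL overnight at 4 °C. Samples were bound overnight at 4 °C, then a rabbit monoclonal detection antibody and SULFO-TAG anti-rabbit, each at 0.25 μg/mL, were applied for 1 h at room temperature.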

SMILES | IC50
Cc1cn2nc(-c3cc(F)c4nc(N(C)C5CC6CCC(C5)N6)sc4c3)cc(C)c2n1 (stereo not drawn) [Compound 192, N-[(3-exo)-8-azabicyclo[3.2.1]oct-3-yl]-6-(2,8-dimethylimidazo[1,2-b]pyridazin-6-yl)-4-fluoro-N-methyl-1,3-benzothiazol-2-amine] | ≤ 100 nM
CN(c1nc2cnc(-c3cc(C#N)c4nn(C)cc4c3)nc2s1)C1CCNCC1 [Compound 193, 2-methyl-5-{2-[methyl(piperidin-4-yl)amino][1,3]thiazolo[5,4-d]pyrimidin-5-yl}-2H-indazole-7-carbonitrile] | ≤ 100 nM
Cc1cn2nc(-c3cc(F)c4nc(C56CCN(CC5)CC6)sc4c3)cc(C)c2n1 [Compound 194, 6-[2-(1-azabicyclo[2.2.2]oct-4-yl)-4-fluoro-1,3-benzothiazol-6-yl]-2,8-dimethylimidazo[1,2-b]pyridazine] | ≤ 100 nM
Cc1cn2nc(-c3cc(F)c4nc(C5CCNCC5)sc4c3)cc(Oc3ccccc3)c2n1 [Compound 195, 6-[4-fluoro-2-(piperidin-4-yl)-1,3-benzothiazol-6-yl]-2-methyl-8-phenoxyimidazo[1,2-b]pyridazine] | ≤ 100 nM
Cc1cn2cc(-c3ncc4nc(N(C)C5CCNCC5)sc4n3)cc(C#N)c2n1 [Compound 196, 2-methyl-6-{2-[methyl(piperidin-4-yl)amino][1,3]thiazolo[5,4-d]pyrimidin-5-yl}imidazo[1,2-a]pyridine-8-carbonitrile] | ≤ 100 nM
COc1cc(-c2ncc3nc(N(C)C4CC(C)(C)NC(C)(C)C4)sc3n2)cc2cn(C)nc12 [Compound 197, 5-(7-methoxy-2-methyl-2H-indazol-5-yl)-N-methyl-N-(2,2,6,6-tetramethylpiperidin-4-yl)[1,3]thiazolo[5,4-d]pyrimidin-2-amine] | 100 to 500 nM
Cc1cn2cc(-c3cc4sc(N(C)C5CCNCC5)nc4cn3)cc(C#N)c2n1 [Compound 198, 2-methyl-6-{2-[methyl(piperidin-4-yl)amino][1,3]thiazolo[4,5-c]pyridin-6-yl}imidazo[1,2-a]pyridine-8-carbonitrile] | ≤ 100 nM
Cc1cn2cc(-c3cc4sc(NC5CC6CCC(C5)N6)nc4cn3)cc(C#N)c2n1 (stereo not drawn) [Compound 199, 6-{2-[(3-exo)-8-azabicyclo[3.2.1]oct-3-ylamino][1,3]thiazolo[4,5-c]pyridin-6-yl}-2-methylimidazo[1,2-a]pyridine-8-carbonitrile] | ≤ 100 nM
COc1cc(-c2cc(F)c3nc(N(C)C4CC(C)(C)NC(C)(C)C4)sc3c2)nn2cc(C)nc12 [Compound 200, 4-fluoro-6-(8-methoxy-2-methylimidazo[1,2-b]pyridazin-6-yl)-N-methyl-N-(2,2,6,6-tetramethylpiperidin-4-yl)-1,3-benzothiazol-2-amine] | ≤ 100 nM
Cc1cn2nc(-c3cc(F)c4nc(N(C)C5CC(C)(C)NC(C)(C)C5)sc4c3)cc(N)c2n1 [Compound 201, 6-{4-fluoro-2-[methyl(2,2,6,6-tetramethylpiperidin-4-yl)amino]-1,3-benzothiazol-6-yl}-2-methylimidazo[1,2-b]pyridazin-8-amine] | 100 to 500 nM
COc1cc(-c2cc(F)c3nc(N(C)C4CCNCC4)sc3c2)nn2cc(C)nc12 [Compound 202, 4-fluoro-6-(8-methoxy-2-methylimidazo[1,2-b]pyridazin-6-yl)-N-methyl-N-(piperidin-4-yl)-1,3-benzothiazol-2-amine] | ≤ 100 nM
Cc1cn2cc(-c3cc4sc(N(C)C5CC6CCC(C5)N6)nc4cn3)cc(C#N)c2n1 (stereo not drawn) [Compound 203, 6-{2-[(3-exo)-8-azabicyclo[3.2.1]oct-3-yl(methyl)amino][1,3]thiazolo[4,5-c]pyridin-6-yl}-2-methylimidazo[1,2-a]pyridine-8-carbonitrile] | ≤ 100 nM
Cc1cn2cc(-c3cc4sc(N(C)C5CC6CCC(C5)N6)nc4cn3)cc(F)c2n1 (stereo not drawn) [Compound 204, N-[(3-exo)-8-azabicyclo[3.2.1]oct-3-yl]-6-(8-fluoro-2-methylimidazo[1,2-a]pyridin-6-yl)-N-methyl[1,3]thiazolo[4,5-c]pyridin-2-amine] | ≤ 100 nM
CN(c1nc2cnc(-c3cc(F)c4nn(C)cc4c3)cc2s1)C1CC2CCC(C1)N2 (stereo not drawn) [Compound 205, N-[(3-exo)-8-azabicyclo[3.2.1]oct-3-yl]-6-(7-fluoro-2-methyl-2H-indazol-5-yl)-N-methyl[1,3]thiazolo[4,5-c]pyridin-2-amine] | ≤ 100 nM
CN(c1nc2cnc(-c3cc(C#N)c4nn(C)cc4c3)cc2s1)C1CC2CCC(C1)N2 (stereo not drawn) [Compound 206, 5-{2-[(3-exo)-8-azabicyclo[3.2.1]oct-3-yl(methyl)amino][1,3]thiazolo[4,5-c]pyridin-6-yl}-2-methyl-2H-indazole-7-carbonitrile] | ≤ 100 nM
Cc1cn2cc(-c3ncc4nc(N(C)C5CC6CCC(C5)N6)sc4n3)cc(C#N)c2n1 (stereo not drawn) [Compound 207, 6-{2-[(3-exo)-8-azabicyclo[3.2.1]oct-3-yl(methyl)amino][1,3]thiazolo[5,4-d]pyrimidin-5-yl}-2-methylimidazo[1,2-a]pyridine-8-carbonitrile] | ≤ 100 nM
CN(c1nc2cnc(-c3cc(C#N)c4nn(C)cc4c3)nc2s1)C1CC2CCC(C1)N2 (stereo not drawn) [Compound 208, 5-{2-[(3-exo)-8-azabicyclo[3.2.1]oct-3-yl(methyl)amino][1,3]thiazolo[5,4-d]pyrimidin-5-yl}-2-methyl-2H-indazole-7-carbonitrile] | ≤ 100 nM

SMILES | IC50
Cc1cn2nc(-c3cc(F)c4nc(N(C)C5CC6CCC(C5)N6)sc4c3)ccc2n1 (stereo not drawn) [Compound 209, N-[(3-exo)-8-azabicyclo[3.2.1]oct-3-yl]-4-fluoro-N-methyl-6-(2-methylimidazo[1,2-b]pyridazin-6-yl)-1,3-benzothiazol-2-amine] | ≤ 100 nM
Cc1cn2nc(-c3cc(F)c4nc(C5(C)CCNCC5)sc4c3)cc(C)c2n1 [Compound 210, 6-[4-fluoro-2-(4-methylpiperidin-4-yl)-1,3-benzothiazol-6-yl]-2,8-dimethylimidazo[1,2-b]pyridazine] | 500 to 1000 nM
Cn1cc2cc(-c3cc4sc(NC5CC6CCC(C5)N6)nc4cn3)cc(F)c2n1 (stereo not drawn) [Compound 211, N-[(3-exo)-8-azabicyclo[3.2.1]oct-3-yl]-6-(7-fluoro-2-methyl-2H-indazol-5-yl)[1,3]thiazolo[4,5-c]pyridin-2-amine] | ≤ 100 nM
Cc1cn2cc(-c3cc4sc(NC5CC6CCC(C5)N6)nc4cn3)cc(F)c2n1 (stereo not drawn) [Compound 212, N-[(3-exo)-8-azabicyclo[3.2.1]oct-3-yl]-6-(8-fluoro-2-methylimidazo[1,2-a]pyridin-6-yl)[1,3]thiazolo[4,5-c]pyridin-2-amine] | ≤ 100 nM
Cn1cc2cc(-c3cc4sc(NC5CC6CCC(C5)N6)nc4cn3)cc(C#N)c2n1 (stereo not drawn) [Compound 213, 5-{2-[(3-exo)-8-azabicyclo[3.2.1]oct-3-ylamino][1,3]thiazolo[4,5-c]pyridin-6-yl}-2-methyl-2H-indazole-7-carbonitrile] | ≤ 100 nM
CN(c1nc2cnc(-c3cc(C#N)c4nn(C)cc4c3)cc2s1)C1CCNCC1 [Compound 214, 2-methyl-5-{2-[methyl(piperidin-4-yl)amino][1,3]thiazolo[4,5-c]pyridin-6-yl}-2H-indazole-7-carbonitrile] | ≤ 100 nM
Cc1cn2cc(-c3cc4sc(N(C)C5CCNCC5)nc4cn3)cc(F)c2n1 [Compound 215, 6-(8-fluoro-2-methylimidazo[1,2-a]pyridin-6-yl)-N-methyl-N-(piperidin-4-yl)[1,3]thiazolo[4,5-c]pyridin-2-amine] | ≤ 100 nM
CN(c1nc2cnc(-c3cc(F)c4nn(C)cc4c3)cc2s1)C1CCNCC1 [Compound 216, 6-(7-fluoro-2-methyl-2H-indazol-5-yl)-N-methyl-N-(piperidin-4-yl)[1,3]thiazolo[4,5-c]pyridin-2-amine] | 100 to 500 nM
Cc1cn2cc(-c3ncc4nc(N(C)C5CC6CCC(C5)N6)sc4n3)cc(F)c2n1 (stereo not drawn) [Compound 217, N-[(3-exo)-8-azabicyclo[3.2.1]oct-3-yl]-5-(8-fluoro-2-methylimidazo[1,2-a]pyridin-6-yl)-N-methyl[1,3]thiazolo[5,4-d]pyrimidin-2-amine] | ≤ 100 nM
CN(c1nc2cnc(-c3cc(F)c4nn(C)cc4c3)nc2s1)C1CC2CCC(C1)N2 (stereo not drawn) [Compound 218, N-[(3-exo)-8-azabicyclo[3.2.1]oct-3-yl]-5-(7-fluoro-2-methyl-2H-indazol-5-yl)-N-methyl[1,3]thiazolo[5,4-d]pyrimidin-2-amine] | 100 to 500 nM
Cc1cn2nc(-c3cc(F)c4nc(C5CCNCC5)sc4c3)cc(C(=O)O)c2n1 [Compound 219, 6-[4-fluoro-2-(piperidin-4-yl)-1,3-benzothiazol-6-yl]-2-methylimidazo[1,2-b]pyridazine-8-carboxylic acid] | 1000 to 3000 nM
COC(=O)Cc1cc(-c2cc(F)c3nc(C4CCNCC4)sc3c2)nn2cc(C)nc12 [Compound 220, methyl {6-[4-fluoro-2-(piperidin-4-yl)-1,3-benzothiazol-6-yl]-2-methylimidazo[1,2-b]pyridazin-8-yl}acetate] | ≤ 100 nM
Cc1cn2nc(-c3cc(F)c4nc(C5CCNCC5)sc4c3)cc(CC(=O)O)c2n1 [Compound 221, {6-[4-fluoro-2-(piperidin-4-yl)-1,3-benzothiazol-6-yl]-2-methylimidazo[1,2-b]pyridazin-8-yl]acetic acid] | ≤ 100 nM
Cc1cn2cc(-c3cc4sc(NC5CC(C)(C)NC(C)(C)C5)nc4cn3)cc(C#N)c2n1 [Compound 222, 2-methyl-6-{2-[(2,2,6,6-tetramethylpiperidin-4-yl)amino][1,3]thiazolo[4,5-c]pyridin-6-yl]imidazo[1,2-a]pyridine-8-carbonitrile] | ≤ 100 nM
Cc1cn2cc(-c3cc4sc(OC5CC6CCC(C5)N6)nc4cn3)cc(C#N)c2n1 (stereo not drawn) [Compound 223, 6-{2-[(3-exo)-8-azabicyclo[3.2.1]oct-3-yloxy][1,3]thiazolo[4,5-c]pyridin-6-yl}-2-methylimidazo[1,2-a]pyridine-8-carbonitrile] | 100 to 500 nM
Cc1cn2nc(-c3cc(F)c4nc(C5CCNCC5)sc4c3)cc(C(N)=O)c2n1 [Compound 224, 6-[4-fluoro-2-(piperidin-4-yl)-1,3-benzothiazol-6-yl]-2-methylimidazo[1,2-b]pyridazine-8-carboxamide] | ≤ 100 nM
